Experimental data reported in patent US5945436A, “Pyridylmethyl nitriles, amides and thioamides useful as fungicides” (Uniroyal Chemical Company, Inc., priority 1997, dated 1999).

Key:
Colletotrichum gossypii = experiment: Fungal growth inhibition, treated disc on agar (COL GOS); type: cell-based; conditions: disc dipped in 500 mg/l, 29° C.; for inhibition at 500 µg/mL: Colletotrichum gossypii, read-out: Percent Growth Inhibition, COL GOS
Procedure: (§1) The treated and untreated discs were then placed on agar plates and one of the following fungus species: Septoria nodorum (SEP NOD), Botrytis cinerea (BOT CIN), Fusarium oxysporum (FUS OXY), Pythium ultimum (PYT ULT), Rhizoctonia solani (RHI SOL), Colletotrichum gossypii (COL GOS), and Scierotinia minor (SCL MIN), was added to the center of each disc in the form of a culture plug with the fungus mat in contact with the paper of the test disc. Cercosporidium personatum (CER PER), was added to discs as a spore suspension (20,000 spores/ml) to the disc (two drops of spore suspension per disc), rather than a mycelial culture plug. The plates were then incubated at 29° C. in an oven.
(§2) With the exception of the discs containing Cercosporidium personatum, the discs were evaluated by first measuring the radius from the center of the fungus colony on the treated discs and on the untreated discs. Percent growth inhibition of each of the compounds tested was determined as a function of the difference between the radius of the fungus colony on the treated disc versus the radius of the fungus colony on the untreated disc.

Pythium ultimum = experiment: Fungal growth inhibition, treated disc on agar (PYT ULT); type: cell-based; conditions: disc dipped in 500 mg/l, 29° C.; for inhibition at 500 µg/mL: Globisporangium ultimum, read-out: Percent Growth Inhibition, PYT ULT
[1] = test system: Cercosporidium personatum; experiment: Fungal germination and growth, treated disc on agar, scored (CER PER); type: cell-based; design: key: 100: Complete inhibition of germination and growth.; 80: Nearly complete inhibition but some growth.; 50: Partial inhibition of growth or, early complete inhibition but later growth begins.; 20: Some inhibition of growth, but not significant.; 0: No inhibition of growth; conditions: disc dipped in 500 mg/l, 29° C., numerical score 0-100, spore suspension
Excerpt: Filter paper discs, each 11 mm. in diameter, were dipped in each of the test solutions. The discs were allowed to air dry to drive off the acetone solvent. A number of untreated discs were used as controls. The treated and untreated discs were then placed on agar plates and one of the following fungus species: Septoria nodorum (SEP NOD), Botrytis cinerea (BOT CIN), Fusarium oxysporum (FUS OXY), Pythium ultimum ([…]), Rhizoctonia solani (RHI SOL), Colletotrichum gossypii (COL GOS), and Scierotinia minor (SCL MIN), was added to the center of each disc in the form of a culture plug with the fungus mat in contact with the paper of the test disc. Cercosporidium personatum (CER PER), was added to discs as a spore suspension (20,000 spores/ml) to the disc (two drops of spore suspension per disc), rather than a mycelial culture plug. The plates were then incubated at 29° C. in an oven. In the case of the Cercosporidium personatum (CER PER) fungi, scoring was done on a numerical basis as follows: 100=Complete inhibition of germination and growth. 80=Nearly complete inhibition but some growth. 50=Partial inhibition of growth or, early complete inhibition but later growth begins. 20=Some inhibition of growth, but not significant. 0=No inhibition of growth. The results of all the above tests appear in Table III below under the headings "SEP NOD," "BOT CIN," "FUS OXY," "[…]" "COL GOS" and "CER PER".

Helminthosporium sativum = experiment: Barley spot blotch, foliar treatment (HEL SAT); type: in vivo; conditions: foliar, 1,000 mg/l; for pest or weed control at 1000 µg/mL: Helminthosporium, foliar, 216 h, read-out: Percent Reduction of Disease, HEL SAT
Procedure: Compositions containing Compounds Nos. 1-81 were prepared by dissolving 0.24 grams of each of the compounds in 8 ml of acetone or other suitable inert solvent. Each of the resultant solutions was treated with 3 drops of TWEEN 20 (ethoxylated ethylene sorbitan monolaurate, a non-ionic surfactant)(I.C.I.), and water was added to form an emulsion. The degree of dilution with water was dictated by the desired concentration of the compound in the composition. The greater the quantity of water added, the lower the concentration of the compound in the composition, reported in milligrams per liter (mg/l) Ten plants of six day-old Barley (variety "Robust") were planted in each of a plurality of pots. Each pot was then either sprayed with one of the compositions of Example 9, at a concentration of 1,000 mg/l, or left unsprayed. The unsprayed plants were used as controls. An equal number of pots were sprayed and unsprayed. All plants, sprayed and unsprayed, were thereafter inoculated with spores of the blotch fungus Helminthosporium sativum. All inoculated plants were placed in a 99% humidity chamber for 24 hours and then placed in a greenhouse, maintained at a temperature of 21° C., for eight days. […] Percent control was computed and the results are summarized in Table II under the heading "HEL SAT".

Botrytis cinerea = experiment: Fungal growth inhibition, treated disc on agar (BOT CIN); type: cell-based; conditions: disc dipped in 500 mg/l, 29° C.; for inhibition at 500 µg/mL: Botrytis cinerea, read-out: Percent Growth Inhibition, BOT CIN
Procedure: as §1, §2

Pyricularia oryzae = experiment: whole plant or invertebrate; type: in vivo; conditions: for pest or weed control at 1000 µg/mL: Pyricularia oryzae, in Hordeum vulgare, foliar, 216 h, read-out: Percent Reduction of Disease, PYR ORY, barley, foliar, 1,000 mg/l; for Percent Reduction of Disease, PYR ORY: barley, foliar, 1,000 mg/l
Scierotinia minor = experiment: Fungal growth inhibition, treated disc on agar (SCL MIN); type: cell-based; conditions: disc dipped in 500 mg/l, 29° C.; for inhibition at 500 µg/mL: read-out: Percent Growth Inhibition, SCL MIN
Procedure: as §1, §2

Structure (SMILES)	inhibition at 500 µg/mL (Colletotrichum gossypii)	inhibition at 500 µg/mL (Pythium ultimum)	CER PER inhibition score [1]	pest or weed control at 1000 µg/mL (Helminthosporium sativum)	inhibition at 500 µg/mL (Botrytis cinerea)	pest or weed control at 1000 µg/mL (Pyricularia oryzae)	inhibition at 500 µg/mL (Scierotinia minor)	Percent Growth Inhibition, COL GOS (Colletotrichum gossypii)	Percent Growth Inhibition, PYT ULT (Pythium ultimum)	Percent Reduction of Disease, HEL SAT (Helminthosporium sativum)	Percent Growth Inhibition, BOT CIN (Botrytis cinerea)	Percent Reduction of Disease, PYR ORY (Pyricularia oryzae)	Percent Growth Inhibition, SCL MIN (Scierotinia minor)
CCCCCCC(C#N)(CCc1ccc(F)cc1)c1cccnc1 (centres unmarked) [Compound 45]	100%	89%	100	100%	100%	17%	100%	–	–	–	–	–	–
Cc1ccc(CCC(C#N)(CCCC(F)(F)F)c2cccnc2)cc1 (centres unmarked) [Compound 79]	30%	0%	0	100%	0%	11%	5%	–	–	–	–	–	–
CCCC(C#N)(CCc1ccccc1F)c1cccnc1 (centres unmarked) [Compound 75]	100%	1%	0	92%	100%	0%	92%	–	–	–	–	–	–
CCCCC(C#N)(CCCc1ccc(Cl)cc1)c1cccnc1 (centres unmarked) [Compound 13]	93%	10%	0	100%	98%	85%	94%	–	–	–	–	–	–
CCCCCC(C#N)(CCc1ccc(F)cc1)c1cccnc1 (centres unmarked) [Compound 60]	30%	50%	0	90%	100%	70%	100%	–	–	–	–	–	–
N#CC(CCCF)(CCc1ccc(F)cc1)c1cccnc1 (centres unmarked) [Compound 64]	55%	0%	0	85%	100%	20%	50%	–	–	–	–	–	–
CCCCCC(C#N)(CCc1ccc(OC)cc1)c1ccccn1 (centres unmarked) [Compound 30]	–	–	0	–	–	–	–	80%	0%	90%	88%	100%	100%
CC(C)CC(C#N)(CCc1ccccc1)c1cccnc1 (centres unmarked) [Compound 7]	89%	35%	0	70%	100%	83%	10%	–	–	–	–	–	–
CCCCC(C#N)(Cc1ccc(C(C)(C)C)cc1)c1cccnc1 (centres unmarked) [Compound 19]	91%	93%	100	100%	40%	35%	100%	–	–	–	–	–	–
N#CC(CCc1ccc(F)cc1)(CCC(F)(F)F)c1cccnc1 (centres unmarked) [Compound 77]	15%	30%	0	90%	65%	35%	40%	–	–	–	–	–	–
C=CCC(C#N)(CCc1ccc(F)cc1)c1cccnc1 (stereo not drawn) [Compound 9, 4-fluoro-α-(2-propenyl)-α-(3-pyridinyl)benzenebutanenitrile]	100%	35%	100	85%	100%	70%	98%	–	–	–	–	–	–
CCCC(C#N)(CCCc1ccccc1OC)c1cccnc1 (centres unmarked) [Compound 71]	100%	60%	100	100%	100%	0%	100%	–	–	–	–	–	–
C=CCC(C#N)(CCCc1ccccc1OC)c1cccnc1 (centres unmarked) [Compound 70]	100%	49%	100	100%	100%	0%	100%	–	–	–	–	–	–
CCOc1ccc(CCC(C#N)(CC(C)C)c2cccnc2)cc1 (centres unmarked) [Compound 43]	94%	36%	100	100%	100%	100%	100%	–	–	–	–	–	–
CCCCC(C#N)(CCc1ccc(OCCC)cc1)c1cccnc1 (centres unmarked) [Compound 69]	–	–	0	–	–	–	–	100%	35%	85%	70%	0%	100%
COCC(C#N)(CCc1ccc(OC)cc1)c1cccnc1 (centres unmarked) [Compound 50]	100%	10%	0	100%	0%	0%	100%	–	–	–	–	–	–
N#CC(CCCC(F)(F)F)(CCc1ccc(F)cc1)c1cccnc1 (centres unmarked) [Compound 78]	50%	0%	0	83%	34%	100%	20%	–	–	–	–	–	–
CCCC(C#N)(Cc1ccc(Oc2ccccc2)cc1)c1cccnc1 (centres unmarked) [Compound 17]	20%	45%	0	0%	5%	70%	10%	–	–	–	–	–	–
CC(C)=CCC(C#N)(CCc1ccccc1)c1cccnc1 (centres unmarked) [Compound 8]	95%	35%	80	100%	40%	0%	100%	–	–	–	–	–	–
CCCC(C#N)(CCc1ccccc1)c1cccnc1 (centres unmarked) [Compound 1]	100%	40%	100	65%	5%	0%	100%	–	–	–	–	–	–
C=CCC(C#N)(CCc1ccc(OCC)cc1)c1cccnc1 (centres unmarked) [Compound 40]	100%	61%	0	100%	100%	92%	100%	–	–	–	–	–	–
CCCC(C#N)(CCc1ccc(F)cc1)c1cccnc1 (centres unmarked) [Compound 10]	97%	40%	100	100%	98%	70%	100%	–	–	–	–	–	–
C#CCC(C#N)(CCc1ccc(OC)cc1)c1cccnc1 (centres unmarked) [Compound 38]	100%	100%	0	100%	100%	17%	46%	–	–	–	–	–	–
